Numbered stars: 1 amine (or outer) side, 2 acyl side, 3 side chain; on linkers, the order of the positions; unused ones are H or OH. Bridge positions count the residues as written; N and C are the ends. Square brackets hold non-standard residues; d marks the D form. Peptide text beside a SMILES is read from it. * marks the point of attachment. Orn(4R-OH,5R-OCH2CH2NMe3+) = C[N+](C)(C)CCO[C@@H](N[*:3])[C@H](O)C[C@H](N[*:1])C(=O)[*:2]; pTerphenylCO(4''-OnC5H11) = CCCCCOc1ccc(-c2ccc(-c3ccc(C(=O)*)cc3)cc2)cc1; hTyr(3S-OH,4S-OH) = N[C@H](C(=O)O)[C@H](O)[C@@H](O)c1ccc(O)cc1; Pro(3S-OH,4S-Me) = C[C@H]1CN[C@H](C(=O)O)[C@H]1O; Hyp = O=C(O)[C@@H]1C[C@@H](O)CN1
How the values were obtained:
CYP2C8 [1] = target: T1, CYP2C8 (Homo sapiens, UniProt P10632); test: NC-013 CYP2C8 inhibition in human liver microsomes; assay type: in vitro ADME; design: in human liver microsomal preparations; from tissue; host or cells: human liver microsomes; details: read-out: IC50, CYP2C8 (weak inhibition)
T1 sequence (P10632 1-490): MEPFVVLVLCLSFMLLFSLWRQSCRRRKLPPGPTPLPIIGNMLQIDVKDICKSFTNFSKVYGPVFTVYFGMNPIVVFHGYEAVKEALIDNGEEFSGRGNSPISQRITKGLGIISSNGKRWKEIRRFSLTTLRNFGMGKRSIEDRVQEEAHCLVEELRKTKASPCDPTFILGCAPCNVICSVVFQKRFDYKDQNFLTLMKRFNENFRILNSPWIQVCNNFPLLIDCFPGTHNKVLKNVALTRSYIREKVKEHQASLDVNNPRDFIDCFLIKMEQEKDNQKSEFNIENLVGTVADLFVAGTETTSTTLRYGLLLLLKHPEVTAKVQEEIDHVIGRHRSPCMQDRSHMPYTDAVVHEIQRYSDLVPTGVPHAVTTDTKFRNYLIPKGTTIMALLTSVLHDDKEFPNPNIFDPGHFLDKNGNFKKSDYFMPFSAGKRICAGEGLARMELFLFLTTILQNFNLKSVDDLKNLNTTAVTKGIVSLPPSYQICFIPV
Excerpt: (§1) Abbreviations: ABC = ATP binding cassette; BCRP = breast cancer resistance protein; BSEP = bile salt export pump; CYP = cytochrome P450; MATE =
(§2) multidrug and toxic compound extrusion; MDCK = Madin-Darby canine kidney; MDR = multidrug resistance protein; mRNA = messenger ribonucleic acid;
(§3) OAT = organic anion transporter; OATP = organic anion transporter protein; OCT – organic cation transporter; OCTN = organic cation transporter novel; P-gp =
(§4) P-glycoprotein; SLC = solute carrier.

human OAT1 = human OAT1 (Homo sapiens, UniProt Q4U2R8); test: NC-152 transporter inhibition, OAT1; assay type: in vitro ADME; details: in vitro cell test system
Excerpt: (§5) Microbiology Spectrum Supplementary materials
(§6) Table S 4Summary of initial in vitro assessments […]
(§7) whether rezafungin can induce CYP isoforms 1A2, 2B6, or 3A4. mRNA expression) of CYP1A2 and CYP2B6, and, in the case of […]
(§8) Abbreviations: ABC = ATP binding cassette; BCRP = breast cancer resistance protein; BSEP = bile salt export pump; CYP = cytochrome P450; MATE = multidrug and toxic compound extrusion; MDCK = Madin-Darby canine kidney; MDR = multidrug resistance protein; mRNA = messenger ribonucleic acid; OAT = organic anion transporter; OATP = organic anion transporter protein; OCT – organic cation transporter; OCTN = organic cation transporter novel; P-gp = P-glycoprotein; SLC = solute carrier.

human OAT3 = human OAT3 (Homo sapiens, UniProt Q8TCC7); test: NC-152 transporter inhibition, OAT3; assay type: in vitro ADME; details: in vitro cell test system
Excerpt: as §5, §6, §7, §8

human P-gp = human P-gp (Homo sapiens, UniProt P08183); test: NC-049 P-gp substrate potential in Caco-2 monolayers; assay type: in vitro ADME; details: with/without inhibitors
Excerpt: as §5, §6, §7, §8

human OCT2 = human OCT2 (Homo sapiens, UniProt O15244); test: NC-152 transporter inhibition, OCT2; assay type: in vitro ADME; details: in vitro cell test system
Excerpt: as §5, §6, §7, §8

MDR1 = MDR1 (Homo sapiens, UniProt P08183); test: NC-160 substrate interaction, MDR1; assay type: in vitro ADME; details: efflux (ABC) transporter
Excerpt: as §5, §6, §7, §8

OCTN1 = OCTN1 (Homo sapiens, UniProt Q9H015); test: NC-160 substrate interaction, OCTN1; assay type: in vitro ADME; details: uptake SLC transporter
Excerpt: as §5, §6, §7, §8

CYP2C9 = CYP2C9 (Homo sapiens, UniProt P11712); test: NC-153 time-dependent inhibition in human liver microsomes, CYP2C9; assay type: in vitro ADME; details: 0.1 to 25 μM
Excerpt: as §5, §6, §7, §8

CYP2C19 = CYP2C19 (Homo sapiens, UniProt P33261); test: NC-012 CYP450 inhibition screening, recombinant CYP2C19; assay type: in vitro ADME; details: 10 μM, fluorogenic substrate, recombinant human CYP
Excerpt: as §5, §6, §7, §8

[2] = system: Caco-2 epithelial monolayers; test: NC-049 membrane permeability in Caco-2 monolayers; assay type: in vitro ADME; details: Caco-2 epithelial monolayers expressing human P-gp and BCRP; both transport directions, in the absence and presence of inhibitors; study NC-049
Excerpt: as §5, §6, §7, §8

[3] = Precipitation in human liver microsome incubations (NC-153); assay type: physicochemical
Excerpt: as §5, §6, §7, §8

[4] = cited from earlier work
Excerpt: Rezafungin is a novel echinocandin currently in development for the treatment of candidemia and invasive candidiasis as well as for prophylaxis against fungal diseases caused by Candida, Aspergillus, and Pneumocystis species in people undergoing allogeneic blood and marrow transplantation ([33][–][35]). […] It has als ...

CYP3A4 = CYP3A4 (Homo sapiens, UniProt P08684); test: NC-012 CYP450 inhibition screening, recombinant CYP3A4; assay type: in vitro ADME; details: benzyloxyresorufin substrate, recombinant human CYP
Excerpt: as §5, §6, §7, §8

CYP2C8 [5] = target: T1, CYP2C8; test: NC-153 time-dependent inhibition in human liver microsomes, CYP2C8; assay type: in vitro ADME; design: in human liver microsomal preparations; from tissue; host or cells: human liver microsomes; details: 0.1 to 25 μM
Excerpt: as §5, §6, §7, §8

human MATE1 = human MATE1 (Homo sapiens, UniProt Q96FL8); test: NC-152 transporter inhibition, MATE1; assay type: in vitro ADME
Excerpt: as §1, §2, §3, §4

OCT1 = target: T2, OCT1 (Homo sapiens, UniProt O15245); test: NC-152 transporter inhibition, OCT1; assay type: in vitro ADME
T2 sequence (O15245 1-554): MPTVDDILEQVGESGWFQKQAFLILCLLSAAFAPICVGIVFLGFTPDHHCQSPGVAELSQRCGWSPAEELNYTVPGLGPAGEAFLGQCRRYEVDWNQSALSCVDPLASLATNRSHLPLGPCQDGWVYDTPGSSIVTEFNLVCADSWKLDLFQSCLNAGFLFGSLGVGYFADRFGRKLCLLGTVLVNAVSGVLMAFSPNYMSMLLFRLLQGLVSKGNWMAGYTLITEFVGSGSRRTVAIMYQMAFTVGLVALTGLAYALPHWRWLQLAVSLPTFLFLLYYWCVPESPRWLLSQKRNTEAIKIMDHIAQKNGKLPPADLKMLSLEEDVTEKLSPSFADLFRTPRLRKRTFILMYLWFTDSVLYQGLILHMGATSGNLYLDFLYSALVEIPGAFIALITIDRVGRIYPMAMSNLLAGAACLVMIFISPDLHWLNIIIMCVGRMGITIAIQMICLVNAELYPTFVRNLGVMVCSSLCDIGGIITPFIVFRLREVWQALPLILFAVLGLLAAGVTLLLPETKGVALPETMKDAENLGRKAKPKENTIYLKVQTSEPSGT
Excerpt: as §1, §2, §3, §4

[6] = in vitro cell test system, NC-152

Sequence of human MATE1 (Q96FL8 whole entry): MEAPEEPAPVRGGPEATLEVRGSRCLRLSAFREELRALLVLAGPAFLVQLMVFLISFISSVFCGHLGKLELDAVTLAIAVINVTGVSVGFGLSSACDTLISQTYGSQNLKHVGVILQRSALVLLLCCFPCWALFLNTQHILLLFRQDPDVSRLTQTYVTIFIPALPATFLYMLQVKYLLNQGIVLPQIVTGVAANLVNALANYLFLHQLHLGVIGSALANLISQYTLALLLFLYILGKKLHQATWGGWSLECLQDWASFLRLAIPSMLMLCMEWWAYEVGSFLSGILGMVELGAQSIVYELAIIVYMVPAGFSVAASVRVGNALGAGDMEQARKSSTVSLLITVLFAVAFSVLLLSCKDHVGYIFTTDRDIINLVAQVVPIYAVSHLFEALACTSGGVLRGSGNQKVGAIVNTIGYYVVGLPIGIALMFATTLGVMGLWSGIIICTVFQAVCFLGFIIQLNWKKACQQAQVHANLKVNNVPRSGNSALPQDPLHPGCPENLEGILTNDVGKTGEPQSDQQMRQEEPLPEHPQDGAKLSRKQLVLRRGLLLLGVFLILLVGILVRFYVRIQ
Sequence of CYP2C19 (P33261 whole entry): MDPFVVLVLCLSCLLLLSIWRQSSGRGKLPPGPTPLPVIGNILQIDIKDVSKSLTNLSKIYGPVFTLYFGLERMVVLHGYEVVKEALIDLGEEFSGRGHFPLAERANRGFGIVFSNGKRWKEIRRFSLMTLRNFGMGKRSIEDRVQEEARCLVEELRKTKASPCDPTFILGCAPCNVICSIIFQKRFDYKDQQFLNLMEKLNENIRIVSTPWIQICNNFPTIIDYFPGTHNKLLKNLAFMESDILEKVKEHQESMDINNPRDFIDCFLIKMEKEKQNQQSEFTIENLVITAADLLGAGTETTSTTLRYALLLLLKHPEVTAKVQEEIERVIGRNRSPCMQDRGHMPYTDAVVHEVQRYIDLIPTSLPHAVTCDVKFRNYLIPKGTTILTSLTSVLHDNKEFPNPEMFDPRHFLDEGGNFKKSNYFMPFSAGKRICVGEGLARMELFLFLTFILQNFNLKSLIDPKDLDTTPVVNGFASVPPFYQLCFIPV
Sequence of CYP2C9 (P11712 whole entry): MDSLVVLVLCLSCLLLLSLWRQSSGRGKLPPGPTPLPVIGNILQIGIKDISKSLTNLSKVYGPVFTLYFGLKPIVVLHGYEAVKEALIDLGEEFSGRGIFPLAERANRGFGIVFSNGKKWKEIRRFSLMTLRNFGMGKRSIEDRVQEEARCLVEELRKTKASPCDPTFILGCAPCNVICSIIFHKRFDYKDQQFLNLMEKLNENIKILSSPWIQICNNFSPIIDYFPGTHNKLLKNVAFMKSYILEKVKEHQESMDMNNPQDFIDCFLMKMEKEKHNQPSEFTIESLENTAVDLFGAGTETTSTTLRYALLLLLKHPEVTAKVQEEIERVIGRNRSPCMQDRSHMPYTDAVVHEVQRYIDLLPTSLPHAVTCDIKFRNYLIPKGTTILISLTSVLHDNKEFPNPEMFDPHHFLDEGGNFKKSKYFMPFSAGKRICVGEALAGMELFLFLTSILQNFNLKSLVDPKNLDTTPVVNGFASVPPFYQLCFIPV
Sequence of human OAT3 (Q8TCC7 whole entry): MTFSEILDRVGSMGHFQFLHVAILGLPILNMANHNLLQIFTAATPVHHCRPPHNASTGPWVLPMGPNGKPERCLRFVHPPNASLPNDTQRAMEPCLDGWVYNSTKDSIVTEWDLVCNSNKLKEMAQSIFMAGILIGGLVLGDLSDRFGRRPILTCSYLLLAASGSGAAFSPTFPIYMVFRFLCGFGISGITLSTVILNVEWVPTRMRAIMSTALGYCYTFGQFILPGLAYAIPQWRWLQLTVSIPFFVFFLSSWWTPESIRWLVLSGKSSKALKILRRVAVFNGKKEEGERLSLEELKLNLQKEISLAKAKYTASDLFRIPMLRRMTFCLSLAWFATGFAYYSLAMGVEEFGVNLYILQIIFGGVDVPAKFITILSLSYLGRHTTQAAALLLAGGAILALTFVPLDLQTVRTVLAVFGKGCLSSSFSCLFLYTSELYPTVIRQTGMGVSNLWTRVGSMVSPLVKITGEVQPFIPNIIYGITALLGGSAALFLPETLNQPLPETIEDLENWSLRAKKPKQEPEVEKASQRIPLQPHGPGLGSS
Sequence of human OCT2 (O15244 whole entry): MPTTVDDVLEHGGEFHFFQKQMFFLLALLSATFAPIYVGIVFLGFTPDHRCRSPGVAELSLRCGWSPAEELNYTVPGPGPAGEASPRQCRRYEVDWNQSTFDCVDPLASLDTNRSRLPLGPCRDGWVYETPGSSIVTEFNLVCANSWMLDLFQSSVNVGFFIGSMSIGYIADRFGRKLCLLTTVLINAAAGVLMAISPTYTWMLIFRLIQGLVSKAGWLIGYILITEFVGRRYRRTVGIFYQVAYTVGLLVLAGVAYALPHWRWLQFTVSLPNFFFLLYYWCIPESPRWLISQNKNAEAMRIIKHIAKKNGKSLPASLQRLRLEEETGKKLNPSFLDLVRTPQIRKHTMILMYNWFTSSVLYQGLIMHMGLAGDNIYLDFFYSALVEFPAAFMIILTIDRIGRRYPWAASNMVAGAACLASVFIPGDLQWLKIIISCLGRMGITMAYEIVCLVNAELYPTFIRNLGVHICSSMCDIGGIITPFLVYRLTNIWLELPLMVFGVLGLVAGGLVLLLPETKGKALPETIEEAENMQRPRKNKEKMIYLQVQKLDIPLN
Sequence of MDR1 (P08183 whole entry): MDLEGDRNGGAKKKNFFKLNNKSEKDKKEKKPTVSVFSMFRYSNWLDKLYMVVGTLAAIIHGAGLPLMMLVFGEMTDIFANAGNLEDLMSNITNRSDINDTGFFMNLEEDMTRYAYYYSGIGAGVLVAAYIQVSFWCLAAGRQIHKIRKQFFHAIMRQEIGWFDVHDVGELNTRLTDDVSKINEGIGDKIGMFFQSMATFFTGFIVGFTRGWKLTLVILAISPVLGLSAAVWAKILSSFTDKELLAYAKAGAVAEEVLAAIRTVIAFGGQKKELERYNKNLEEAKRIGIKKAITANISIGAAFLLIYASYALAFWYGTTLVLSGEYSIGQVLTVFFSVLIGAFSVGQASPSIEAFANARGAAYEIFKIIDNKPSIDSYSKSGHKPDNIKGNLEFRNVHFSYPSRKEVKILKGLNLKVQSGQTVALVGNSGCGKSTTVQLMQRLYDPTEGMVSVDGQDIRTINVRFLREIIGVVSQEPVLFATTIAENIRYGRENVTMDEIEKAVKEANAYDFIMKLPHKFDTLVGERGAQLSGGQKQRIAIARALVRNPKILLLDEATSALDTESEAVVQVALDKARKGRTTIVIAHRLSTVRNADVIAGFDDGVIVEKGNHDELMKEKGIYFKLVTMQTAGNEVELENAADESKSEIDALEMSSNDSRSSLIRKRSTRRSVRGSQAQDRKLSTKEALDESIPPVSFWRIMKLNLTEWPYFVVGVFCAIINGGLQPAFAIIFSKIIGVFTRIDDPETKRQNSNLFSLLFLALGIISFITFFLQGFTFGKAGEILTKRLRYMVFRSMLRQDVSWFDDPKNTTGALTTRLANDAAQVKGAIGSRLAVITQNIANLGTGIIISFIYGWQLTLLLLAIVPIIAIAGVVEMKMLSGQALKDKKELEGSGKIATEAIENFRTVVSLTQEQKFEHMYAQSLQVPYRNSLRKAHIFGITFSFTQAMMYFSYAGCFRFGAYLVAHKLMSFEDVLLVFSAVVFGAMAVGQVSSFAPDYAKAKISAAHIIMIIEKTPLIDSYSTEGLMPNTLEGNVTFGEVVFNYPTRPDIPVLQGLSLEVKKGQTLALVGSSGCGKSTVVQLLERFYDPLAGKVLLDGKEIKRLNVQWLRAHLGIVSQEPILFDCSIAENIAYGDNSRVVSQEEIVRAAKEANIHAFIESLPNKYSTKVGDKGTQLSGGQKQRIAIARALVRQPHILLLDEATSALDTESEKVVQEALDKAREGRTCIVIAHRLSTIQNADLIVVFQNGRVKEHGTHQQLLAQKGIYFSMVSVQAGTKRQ
Sequence of human OAT1 (Q4U2R8 whole entry): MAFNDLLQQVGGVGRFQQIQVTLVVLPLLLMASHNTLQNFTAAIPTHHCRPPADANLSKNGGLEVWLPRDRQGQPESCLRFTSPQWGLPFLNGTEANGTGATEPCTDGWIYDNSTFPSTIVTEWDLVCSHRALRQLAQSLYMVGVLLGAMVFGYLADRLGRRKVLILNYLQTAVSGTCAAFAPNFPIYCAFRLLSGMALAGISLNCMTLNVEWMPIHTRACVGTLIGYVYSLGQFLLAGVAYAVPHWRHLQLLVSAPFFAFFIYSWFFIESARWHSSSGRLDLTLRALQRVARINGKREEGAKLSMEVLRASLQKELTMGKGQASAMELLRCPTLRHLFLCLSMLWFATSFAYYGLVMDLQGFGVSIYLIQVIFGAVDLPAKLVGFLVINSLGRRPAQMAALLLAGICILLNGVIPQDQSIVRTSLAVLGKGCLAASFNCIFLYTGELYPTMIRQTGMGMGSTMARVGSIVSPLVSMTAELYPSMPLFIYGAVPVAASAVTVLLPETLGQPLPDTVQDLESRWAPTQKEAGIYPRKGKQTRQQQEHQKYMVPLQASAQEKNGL
Sequence of CYP3A4 (P08684 whole entry): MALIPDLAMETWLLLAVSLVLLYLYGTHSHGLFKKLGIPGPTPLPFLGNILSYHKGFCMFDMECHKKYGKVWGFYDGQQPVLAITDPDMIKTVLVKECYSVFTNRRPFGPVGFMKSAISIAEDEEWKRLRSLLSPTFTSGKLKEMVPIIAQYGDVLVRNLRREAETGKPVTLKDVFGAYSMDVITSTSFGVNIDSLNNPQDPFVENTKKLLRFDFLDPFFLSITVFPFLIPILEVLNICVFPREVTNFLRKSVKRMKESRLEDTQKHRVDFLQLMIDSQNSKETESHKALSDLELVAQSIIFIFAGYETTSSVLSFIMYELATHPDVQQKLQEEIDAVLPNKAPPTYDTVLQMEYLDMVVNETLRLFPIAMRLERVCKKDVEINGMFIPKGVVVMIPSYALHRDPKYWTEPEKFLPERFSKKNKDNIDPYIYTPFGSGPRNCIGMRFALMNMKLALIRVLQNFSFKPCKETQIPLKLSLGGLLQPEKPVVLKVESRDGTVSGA

## CCCCCOc1ccc(-c2ccc(-c3ccc(C(=O)N[C@H]4C[C@@H](O)[C@@H](OCC[N+](C)(C)C)NC(=O)[C@@H]5[C@@H](O)[C@@H](C)CN5C(=O)[C@H]([C@@H](C)O)NC(=O)[C@H]([C@H](O)[C@@H](O)c5ccc(O)cc5)NC(=O)[C@@H]5C[C@@H](O)CN5C(=O)[C@H]([C@@H](C)O)NC4=O)cc3)cc2)cc1 [Rezafungin] ({pTerphenylCO(4''-OnC5H11)}-[Orn(4R-OH,5R-OCH2CH2NMe3+)]T[Hyp][hTyr(3S-OH,4S-OH)]T[Pro(3S-OH,4S-Me)]; lactam 1-C)
CYP2C8 [1]
  IC50: > 25 µM
Human OAT1
  inhibitor of probe substrate transport mediated via OAT1: determined to be an inhibitor
Human OAT3
  inhibitor of probe substrate transport mediated via OAT3: not
Human P-gp
  substrate of P-gp: not a substrate
Human OCT2
  inhibitor of probe substrate transport mediated via OCT2: determined to be an inhibitor
MDR1
  substrate of MDR1: not a substrate
OCTN1
  substrate of OCTN1: not a substrate
CYP2C9
  time-dependent inhibitor of CYP2C9: not a time-dependent inhibitor
CYP2C19
  inhibition of CYP2C19: Minimal inhibition
[2]
  permeability coefficient: < 0.2 ×10⁻⁶ cm/s
[3]
  concentration at which precipitation occurred: ≥ 25 µM
[4]
  half-life: around 130 h
[4]; incubated in phosphate-buffered saline, no evidence of reactive intermediate formation
  chemical stability: chemically stable
[4]; preclinical data
  metabolic stability in hepatocytes: metabolically stable
  metabolic stability in liver microsomes: metabolically stable
CYP3A4
  inhibition at 10 µM: 81%
CYP2C8 [5]
  time-dependent inhibitor of CYP2C8: not a time-dependent inhibitor
Human MATE1; [6]
  inhibitor of probe substrate transport mediated via MATE1: determined to be an inhibitor
Human MATE1; initial in vitro studies, read-out: IC50, MATE-1 uptake transporter (moderate inhibition)
  IC50: > 6 µM
OCT1; [6]
  inhibitor of probe substrate transport mediated via OCT1: determined to be an inhibitor
OCT1; initial in vitro studies, read-out: IC50, OCT-1 uptake transporter (moderate inhibition)
  IC50: > 6 µM

Reference: paper PMC10269561, “Absence of Clinically Meaningful Drug-Drug Interactions with Rezafungin: Outcome of Investigations” (Microbiology Spectrum, 2023)
